Results from patent US20100218416A1, “HYDROXYMETHYLFURFURAL ETHERS FROM SUGARS OR HMF AND BRANCHED ALCOHOLS” (FURANIX TECHNOLOGIES B.V., priority 2007, published 2010).
Like-named read-outs stand apart in the source and are kept apart here.

Assays:
[1] = Fuel solubility: miscibility in blends with commercial diesel; assay type: physicochemical
From the text: Fuel solubility is a primary concern for diesel fuel applications. Not all highly polar oxygenates have good solubility in the current commercial diesel fuels.
The engine is run stationary with regular diesel initially, after which the fuel supply is switched to the 40 vol % tBMF-diesel blend.

[2] = Oxidation stability of blend with additive free diesel fuel (NF en ISO 12205); assay type: physicochemical; settings: 0.1 vol % blend with additive free diesel fuel
Procedure: Likewise, oxygenated fuel additives, certainly when containing an aldehyde functional group, often reduce the oxidation stability of the base diesel fuel. A 0.1 vol % blend of tBMF with additive free diesel fuel was prepared at an outside laboratory for oxidation stability determination according to NF en ISO 12205 certified methods.

Row | Compound | miscibility with commercial diesel ([1]; 5 vol % blend with commercial diesel) | miscibility with commercial diesel ([1]; 25 vol % blend with commercial diesel) | miscibility with commercial diesel ([1]; 40 vol % blend with commercial diesel) | miscibility with commercial diesel [1] | mixing or flocculation problems [1] | oxidation stability versus reference additive-free diesel [2]
1 | CCOCc1ccc(C=O)o1 [EMF, ethoxymethylfurfural, reference compound] | completely miscible | phase separation occurs | phase separation occurs | – | – | –
2 | CC(C)(C)OCc1ccc(C=O)o1 [tBMF, 5-(tert-Butoxymethyl)furfural] | – | – | – | completely miscible | does not yield any mixing or flocculation problems | same oxidation stability
